The values below are quoted from earlier work in patent publication US10799550B2, “Oral compositions comprising beta-escin for reducing acetaldehyde toxicity” (ESCILAB SP. Z O.O., priority 2016, dated 2020).

In this data set the test system is ethanol absorption. Particulars: rats.

The structures appear in SMILES notation.

With `C/C=C(/C)C(=O)O[C@H]1[C@H](OC(C)=O)[C@]2(CO)[C@H](O)C[C@]3(C)C(=CC[C@@H]4[C@@]5(C)CC[C@H](O[C@@H]6O[C@H](C(=O)O)[C@@H](O[C@@H]7O[C@H](CO)[C@@H](O)[C@H](O)[C@H]7O)[C@H](O)[C@H]6O[C@@H]6OC[C@@H](O)[C@H](O)[C@H]6O)[C@](C)(CO)[C@@H]5CC[C@]43C)[C@@H]2CC1(C)C` [escin IIb], the “effect on ethanol absorption” value is given as “inhibitory effect”.

`C/C=C(/C)C(=O)O[C@H]1[C@H](OC(C)=O)[C@]2(CO)[C@H](O)C[C@]3(C)C(=CC[C@@H]4[C@@]5(C)CC[C@H](O[C@@H]6O[C@H](C(=O)O)[C@@H](O[C@@H]7O[C@H](CO)[C@@H](O)[C@H](O)[C@H]7O)[C@H](O)[C@H]6O[C@@H]6O[C@H](CO)[C@@H](O)[C@H](O)[C@H]6O)[C@](C)(CO)[C@@H]5CC[C@]43C)[C@@H]2CC1(C)C` [escin Ib]: the “effect on ethanol absorption” value is reported as “inhibitory effect”.

On to `C/C=C(\C)C(=O)O[C@H]1[C@H](OC(C)=O)[C@]2(CO)[C@H](O)C[C@]3(C)C(=CC[C@@H]4[C@@]5(C)CC[C@H](O[C@@H]6O[C@H](C(=O)O)[C@@H](O[C@@H]7O[C@H](CO)[C@@H](O)[C@H](O)[C@H]7O)[C@H](O)[C@H]6O[C@@H]6O[C@H](CO)[C@@H](O)[C@H](O)[C@H]6O)[C@](C)(CO)[C@@H]5CC[C@]43C)[C@@H]2CC1(C)C` [escin Ia], for which the “effect on ethanol absorption” value is listed as “inhibitory effect”.

On to `C/C=C(\C)C(=O)O[C@H]1[C@H](OC(C)=O)[C@]2(CO)[C@H](O)C[C@]3(C)C(=CC[C@@H]4[C@@]5(C)CC[C@H](O[C@@H]6O[C@H](C(=O)O)[C@@H](O[C@@H]7O[C@H](CO)[C@@H](O)[C@H](O)[C@H]7O)[C@H](O)[C@H]6O[C@@H]6OC[C@@H](O)[C@H](O)[C@H]6O)[C@](C)(CO)[C@@H]5CC[C@]43C)[C@@H]2CC1(C)C` [escin IIa], for which the “effect on ethanol absorption” value was “inhibitory effect”.
